The values that follow come from ChEMBL document CHEMBL1146012, “5-benzylidene-hydantoins as new EGFR inhibitors with antiproliferative activity” (Bioorg Med Chem Lett, 2006).

For orientation: IC50 means the concentration that gives 50% inhibition. A low value points to greater potency in that assay.

The target of this assay is Epidermal growth factor receptor (Homo sapiens, UniProt P00533). Put plainly: Inhibition of EGFR-mediated polyGAT phosphorylation at 10 uM.
Chain of Epidermal growth factor receptor (P00533 whole entry): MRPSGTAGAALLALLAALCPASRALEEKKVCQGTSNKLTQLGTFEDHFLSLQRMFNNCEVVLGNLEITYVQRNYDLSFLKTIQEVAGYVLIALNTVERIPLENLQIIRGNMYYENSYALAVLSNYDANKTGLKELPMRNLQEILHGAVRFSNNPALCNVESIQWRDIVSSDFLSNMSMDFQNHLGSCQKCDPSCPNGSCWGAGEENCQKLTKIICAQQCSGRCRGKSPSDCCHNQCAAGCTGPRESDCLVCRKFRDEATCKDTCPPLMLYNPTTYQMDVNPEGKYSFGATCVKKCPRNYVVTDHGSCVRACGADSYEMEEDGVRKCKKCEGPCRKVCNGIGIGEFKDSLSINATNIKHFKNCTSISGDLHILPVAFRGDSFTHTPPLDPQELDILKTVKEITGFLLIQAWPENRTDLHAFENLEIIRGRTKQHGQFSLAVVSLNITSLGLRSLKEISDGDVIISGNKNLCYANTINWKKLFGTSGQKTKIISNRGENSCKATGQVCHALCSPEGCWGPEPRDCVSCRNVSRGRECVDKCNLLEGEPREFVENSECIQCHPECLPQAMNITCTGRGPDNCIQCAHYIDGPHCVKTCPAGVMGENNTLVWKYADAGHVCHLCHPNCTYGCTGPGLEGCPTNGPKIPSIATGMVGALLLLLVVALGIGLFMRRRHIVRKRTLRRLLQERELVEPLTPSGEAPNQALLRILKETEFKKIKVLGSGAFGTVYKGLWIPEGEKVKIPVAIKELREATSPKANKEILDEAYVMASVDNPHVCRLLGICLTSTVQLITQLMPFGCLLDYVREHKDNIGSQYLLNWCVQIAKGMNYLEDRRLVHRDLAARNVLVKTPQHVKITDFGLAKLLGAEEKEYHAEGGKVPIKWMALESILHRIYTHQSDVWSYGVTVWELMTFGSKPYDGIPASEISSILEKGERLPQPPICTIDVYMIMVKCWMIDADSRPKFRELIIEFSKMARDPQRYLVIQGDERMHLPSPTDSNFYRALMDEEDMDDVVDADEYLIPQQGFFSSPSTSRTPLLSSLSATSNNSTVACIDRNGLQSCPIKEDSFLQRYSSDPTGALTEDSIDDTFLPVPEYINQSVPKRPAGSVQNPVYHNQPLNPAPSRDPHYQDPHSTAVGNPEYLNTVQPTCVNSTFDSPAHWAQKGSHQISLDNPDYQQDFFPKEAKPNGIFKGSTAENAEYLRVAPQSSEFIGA

On to `O=C1NC(=O)N(CCc2ccccc2)/C1=C/c1ccc(O)cc1`, for which inhibition was half-maximal at 710 nM (IC50).
